This note sets out measurements from US11260083B2, “Compositions and methods for treating and preventing graft versus host disease” (The Regents of the University of Michigan, priority 2016, dated 2022).

The test system of test [1] is allogeneic (C57BL/6J→BALB/c) BMT recipients. Put plainly: MHC-mismatched allo-BMT GVHD model with intragastric butyrate. It counts as in vivo, mouse. As to the method: BMTs were performed as previously described (Reddy, P. et al. A crucial role for antigen-presenting cells and alloantigen expression in graft-versus-leukemia responses. Nat. Med. 11, 1244-1249 (2005); 15). Briefly, syngeneic (BALB/c→BALC/c or C57BL/6J→C57BL/6J) and allogeneic (C57BL/6J→BALB/c or C3H.sw→C57BL/6J) recipients received lethal irradiation. On day −1, BALB/c recipients received a total of 800 cGy of irradiation (split dose separated by 3 hours) and B6 animals received a single dose of 1000 cGy. Donor splenic CD90.2+ T cells were magnetically separated using an autoMACs (Miltenyi Biotec; Bergisch Gladbach, Germany) and 0.5×10^6 to 2.5×10^6 T cells were transferred to BALB/c and C57BL/6J recipients. 5×10^6 donor whole or TCD bone marrow was transferred to all recipients. Survival was monitored daily and the recipient body weight and GVHD clinical scores were determined weekly, as described previously42. Histopathologic analysis of the gastrointestinal (GI) tract was performed as described (Reddy, P. et al. A crucial role for antigen-presenting cells and alloantigen expression in graft-versus-leukemia responses. Nat. Med. 11, 1244-1249 (2005)). Animals received vehicle (sterile PBS, 0.0004 g Na+ per dose) or sodium butyrate (10 mg/kg, 0.00004 g Na+ per dose) by flexible 20G-1.5″ intragastric gavage needle daily for 1 week, then every other day thereafter.
Systemic administration of HDACi decreases acute GVHD (Reddy, P. et al. Histone deacetylase inhibitor suberoylanilide hydroxamic acid reduces acute graft-versus-host disease and preserves graft-versus-leukemia effect. Proc Natl Acad Sci USA 101, 3921-3926 (2004); Reddy, P. et al. Histone deacetylase inhibition modulates indoleamine 2,3-dioxygenasedependent DC functions and regulates experimental graft-versus-host disease in mice. J. Clin. Invest. 118, 2562-2573 (2008); Sun, Y. et al. Cutting edge: Negative regulation of dendritic cells through acetylation of the nonhistone protein STAT-3. J Immunol 182, 5899-5903 (2009)). It was therefore determined if increasing local levels of endogenous HDACi, butyrate, would impact GVHD severity. Again using the C57BL/6J into Balb/c model, vehicle control or butyrate was administered via daily intragastric gavage for one week, followed by administration every other day for the remainder of the experiment. […] Next, to further evaluate the magnitude of the butyrate-induced protective effect, GVHD mortality was determined utilizing the MHC disparate B6 into BALB/c model.

The subject of test [2] is HAT. Put plainly: HAT enzymatic activity in donor T cells from recipient spleen. It counts as in vivo, mouse. The note with it: butyrate vs vehicle treated allogeneic animals. The procedure: To further determine whether the salutary effects of local treatment with butyrate on GI GVHD were dependent on donor Treg cells, a BMT was performed utilizing the same HC mismatched BMT model in which C57BL/6J (H-2b) cells are transferred to Balb/c (H-2d) mice. T cell-depleted (TCD) bone marrow was transplanted and purified CD4+CD25− T cells from donors. Vehicle or butyrate was administered to the recipients daily for 1 week, then every other day thereafter as above. […]. J. Exp. Med. 204, 57-63 (2007); Lahl, K. & Sparwasser, T. In vivo depletion of FoxP3+ Tregs using the DEREG mouse model. […]. The Treg depleted T cells were then used as donor cells in the major MHC mismatch model used above. […] To further examine whether the local administration of butyrate impacted donor T cells directly, the HDAC and HAT enzymatic activity was determined in donor T cells harvested from the recipient animals. Both the HDAC activity or HAT activity in the donor T cells harvested from the recipient spleen were similar between butyrate and vehicle treated allogeneic animals.

For test [3], the system named is primary C57BL/6J IECs. Description: CTL assay: allogeneic CD8+ T cell killing of IECs. Conditions: butyrate pre-treated overnight, vs control. It counts as cell-based, mouse. The procedure:
CD8+ T cells were isolated from Balb/c (H-2d) mice using anti-CD8 microbeads and LS columns (Miltenyi Biotec) following the manufacturer's instructions. CD8+ T cells were primed in the presence of irradiated (30 Gy) C57BL/6J (H-2b) splenocytes for 6 days prior to culture with primary IECs for 6 h and 16 h. Primary C57BL/6J IECs were harvested and incubated overnight in the presence or absence of butyrate 1 mM in gelatin coated (Cell Biologics Inc.; Chicago, Ill.) 100 mm-culture dishes (Fisher Scientific).
The potential mechanisms that contribute to butyrate-induced protection from severe GVHD were explored. Because (a) butyrate is decreased in IECs, (b) administration of butyrate mitigated GI GVHD independent of Treg cells, but (c) improved junction integrity, it was explored whether butyrate had direct effects on protecting IECs from allo-T cell mediated damage and conditioning. IECs were treated ex vivo with vehicle or butyrate for 24 hours irradiation (6 Gy) or no-irradition, followed by 24 hours of additional incubation with butyrate was performed. […] The ability of butyrate-treated IECs to withstand damage mediated by alloreactive T cells was determined by isolating and culturing primary IECs with butyrate or vehicle control, overnight. […] Because butyrate is a primary energy source for IECs 1-13, it was next determined whether butyrate enhances survival and growth of IECs in vitro. […]

For test [4], the system named is parent (C57BL/6J) into F1 (B6D2F1) BMT recipients. Put plainly: Non-irradiated parent into F1 BMT model with butyrate. It counts as in vivo, mouse. Conditions: intragastric butyrate.
The mark [5] stands for this setting: intragastric butyrate daily 1 week then every other day, vs vehicle.

Molecules are shown by their SMILES.

Regarding `CCCC(=O)[O-].[Na+]` [butyrate, sodium butyrate], in test [1] (21 days following BMT, major MHC mismatch model), the “histological scores in the intestines” value is “decreased histological scores”. Further, the “GVHD mortality / survival” value in test [1] (B6 into BALB/c, higher doses of T cells) is “significant GVHD survival benefit”. Besides, the GVHD clinical scores entry in test [1] (setting [5]) is “decreased”. For the same compound, the survival entry in test [1] (setting [5]) was “increased survival”; in test [4] it was “improved survival”. Besides, the weight loss entry is “decreased weight loss” in test [1] (setting [5]) and “Significantly less weight loss” in test [4]. The “HAT activity in donor T cells” value in test [2] is “similar”. The “IECs succumbing to CD8+ T cell killing” value in test [3] (6 hours co-culture) and in test [3] (16 hours co-culture) was “Fewer butyrate pre-treated IECs succumbed” throughout.
